Measurements: ChEMBL document CHEMBL1201862, “PubChem BioAssay data set” (2004)
Active and inactive are the calls of the source.

How the values were obtained:
Aminopeptidase N = target: T1, Aminopeptidase N (Plasmodium falciparum FcB1/Columbia, UniProt O96935); experiment: P. falciparum M1AAP inhibitors, biochemical, fluorogenic H-Leu-NHMec substrate, 1536-well (AID 1445); parameters: species or system Plasmodium falciparum 3D7, 3D7
T1 sequence (O96935 whole entry): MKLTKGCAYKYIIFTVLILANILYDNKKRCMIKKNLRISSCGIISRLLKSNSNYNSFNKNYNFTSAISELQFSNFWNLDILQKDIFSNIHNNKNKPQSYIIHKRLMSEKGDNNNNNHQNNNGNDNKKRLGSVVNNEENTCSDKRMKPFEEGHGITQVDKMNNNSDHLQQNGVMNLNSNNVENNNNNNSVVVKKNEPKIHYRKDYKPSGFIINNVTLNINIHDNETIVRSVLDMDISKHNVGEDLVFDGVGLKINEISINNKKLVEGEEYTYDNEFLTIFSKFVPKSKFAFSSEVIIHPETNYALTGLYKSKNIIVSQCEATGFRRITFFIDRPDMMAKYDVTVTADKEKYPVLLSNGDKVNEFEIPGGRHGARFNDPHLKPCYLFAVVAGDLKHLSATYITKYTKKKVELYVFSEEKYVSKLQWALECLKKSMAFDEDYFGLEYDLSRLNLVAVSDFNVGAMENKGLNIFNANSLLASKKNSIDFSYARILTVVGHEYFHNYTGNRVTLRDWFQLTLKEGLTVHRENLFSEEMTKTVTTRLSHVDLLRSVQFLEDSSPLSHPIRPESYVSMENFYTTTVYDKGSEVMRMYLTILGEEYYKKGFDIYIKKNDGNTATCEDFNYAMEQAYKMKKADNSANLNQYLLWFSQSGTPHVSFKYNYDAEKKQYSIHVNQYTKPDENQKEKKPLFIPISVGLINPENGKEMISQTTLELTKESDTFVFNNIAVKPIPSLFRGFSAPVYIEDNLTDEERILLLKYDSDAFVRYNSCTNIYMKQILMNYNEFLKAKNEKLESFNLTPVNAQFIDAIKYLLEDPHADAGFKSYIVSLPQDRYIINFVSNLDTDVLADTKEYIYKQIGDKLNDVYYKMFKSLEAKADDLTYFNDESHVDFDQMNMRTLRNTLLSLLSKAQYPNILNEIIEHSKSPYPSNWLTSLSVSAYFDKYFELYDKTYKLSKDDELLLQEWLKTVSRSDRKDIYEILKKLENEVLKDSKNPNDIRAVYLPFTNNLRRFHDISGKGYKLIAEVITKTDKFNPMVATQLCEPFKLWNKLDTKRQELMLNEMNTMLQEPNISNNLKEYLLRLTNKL

Leucine aminopeptidase = target: T2, Leucine aminopeptidase (Plasmodium falciparum 3D7, UniProt Q8IL11); experiment: P. falciparum M17LAP inhibitors, primary screen, biochemical, fluorogenic H-Leu-NHMec substrate, 1536-well (AID 1619); format: functional
T2 sequence (Q8IL11 whole entry): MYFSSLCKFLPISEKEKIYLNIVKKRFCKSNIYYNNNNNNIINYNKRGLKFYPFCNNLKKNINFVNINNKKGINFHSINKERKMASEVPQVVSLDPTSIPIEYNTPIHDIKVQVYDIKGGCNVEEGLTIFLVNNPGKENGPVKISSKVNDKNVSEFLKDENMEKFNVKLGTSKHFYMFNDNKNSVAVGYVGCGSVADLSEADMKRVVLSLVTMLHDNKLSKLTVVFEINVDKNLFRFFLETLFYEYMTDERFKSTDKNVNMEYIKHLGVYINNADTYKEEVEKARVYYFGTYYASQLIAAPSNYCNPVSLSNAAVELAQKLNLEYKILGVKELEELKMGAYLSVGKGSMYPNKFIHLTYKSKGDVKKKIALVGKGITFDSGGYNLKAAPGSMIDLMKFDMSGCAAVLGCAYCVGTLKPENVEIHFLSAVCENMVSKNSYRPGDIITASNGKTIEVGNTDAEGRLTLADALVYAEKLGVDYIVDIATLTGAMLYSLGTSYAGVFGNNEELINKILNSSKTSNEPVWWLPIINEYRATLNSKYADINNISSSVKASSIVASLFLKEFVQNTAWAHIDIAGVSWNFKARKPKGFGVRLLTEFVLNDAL

Aspartyl aminopeptidase = target: T3, Aspartyl aminopeptidase (Plasmodium falciparum 3D7, UniProt Q8I2J3); experiment: Counterscreen for inhibitors of M1 and M17 aminopeptidases: QFRET-based biochemical high throughput dose response assay for inhibitors of the Plasmodium falciparum M18 Aspartyl Aminopeptidase (PFM18AAP). [Related PubChem assays: 1619 (Screening assay (M17LAP inhibitors).), 1445 (Screening assay (M1AAP inhibitors).)]
T3 sequence (Q8I2J3 whole entry): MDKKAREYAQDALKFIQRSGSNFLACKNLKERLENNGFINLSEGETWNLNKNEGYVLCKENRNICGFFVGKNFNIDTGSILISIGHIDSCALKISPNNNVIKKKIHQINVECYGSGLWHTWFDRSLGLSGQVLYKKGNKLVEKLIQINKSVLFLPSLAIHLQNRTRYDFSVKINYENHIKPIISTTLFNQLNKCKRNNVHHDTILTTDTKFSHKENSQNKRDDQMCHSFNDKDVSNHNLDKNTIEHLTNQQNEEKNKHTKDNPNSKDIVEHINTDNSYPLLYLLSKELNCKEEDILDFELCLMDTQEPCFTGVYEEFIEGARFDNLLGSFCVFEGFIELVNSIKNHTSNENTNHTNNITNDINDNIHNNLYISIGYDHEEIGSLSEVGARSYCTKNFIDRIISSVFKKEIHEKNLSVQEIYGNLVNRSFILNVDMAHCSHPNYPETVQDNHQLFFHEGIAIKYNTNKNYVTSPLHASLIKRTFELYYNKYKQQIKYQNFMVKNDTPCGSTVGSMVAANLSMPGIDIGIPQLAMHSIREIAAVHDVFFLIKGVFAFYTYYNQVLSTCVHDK

Procathepsin L = Procathepsin L (Homo sapiens, UniProt P07711); experiment: cathepsin L inhibitors, dose response, counter-screen for M1/M17 aminopeptidase inhibitor project, biochemical, QFRET, 1536-well (AID 2214)
Chain of Procathepsin L (P07711 whole entry): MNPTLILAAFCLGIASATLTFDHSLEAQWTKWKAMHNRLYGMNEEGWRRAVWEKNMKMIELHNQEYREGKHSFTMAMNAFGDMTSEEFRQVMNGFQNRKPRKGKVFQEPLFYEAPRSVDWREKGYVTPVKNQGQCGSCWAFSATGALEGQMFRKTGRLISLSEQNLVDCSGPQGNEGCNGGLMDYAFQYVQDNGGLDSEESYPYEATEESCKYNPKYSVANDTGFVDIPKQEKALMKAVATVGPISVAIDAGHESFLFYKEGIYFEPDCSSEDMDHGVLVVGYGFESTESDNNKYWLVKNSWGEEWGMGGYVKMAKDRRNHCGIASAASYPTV

[1] = target: T4, Short transient receptor potential channel 4 (Mus musculus, UniProt Q9QUQ5); experiment: mouse TRPC4 channel inhibitors, dose response, cell-based, HEK293 TRPC4/mu-opioid, Fluo-4 calcium (AID 434942); format: functional;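 further: potency of inhibitors blocking the TRPC4 calcium response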
T4 sequence (Q9QUQ5 whole entry): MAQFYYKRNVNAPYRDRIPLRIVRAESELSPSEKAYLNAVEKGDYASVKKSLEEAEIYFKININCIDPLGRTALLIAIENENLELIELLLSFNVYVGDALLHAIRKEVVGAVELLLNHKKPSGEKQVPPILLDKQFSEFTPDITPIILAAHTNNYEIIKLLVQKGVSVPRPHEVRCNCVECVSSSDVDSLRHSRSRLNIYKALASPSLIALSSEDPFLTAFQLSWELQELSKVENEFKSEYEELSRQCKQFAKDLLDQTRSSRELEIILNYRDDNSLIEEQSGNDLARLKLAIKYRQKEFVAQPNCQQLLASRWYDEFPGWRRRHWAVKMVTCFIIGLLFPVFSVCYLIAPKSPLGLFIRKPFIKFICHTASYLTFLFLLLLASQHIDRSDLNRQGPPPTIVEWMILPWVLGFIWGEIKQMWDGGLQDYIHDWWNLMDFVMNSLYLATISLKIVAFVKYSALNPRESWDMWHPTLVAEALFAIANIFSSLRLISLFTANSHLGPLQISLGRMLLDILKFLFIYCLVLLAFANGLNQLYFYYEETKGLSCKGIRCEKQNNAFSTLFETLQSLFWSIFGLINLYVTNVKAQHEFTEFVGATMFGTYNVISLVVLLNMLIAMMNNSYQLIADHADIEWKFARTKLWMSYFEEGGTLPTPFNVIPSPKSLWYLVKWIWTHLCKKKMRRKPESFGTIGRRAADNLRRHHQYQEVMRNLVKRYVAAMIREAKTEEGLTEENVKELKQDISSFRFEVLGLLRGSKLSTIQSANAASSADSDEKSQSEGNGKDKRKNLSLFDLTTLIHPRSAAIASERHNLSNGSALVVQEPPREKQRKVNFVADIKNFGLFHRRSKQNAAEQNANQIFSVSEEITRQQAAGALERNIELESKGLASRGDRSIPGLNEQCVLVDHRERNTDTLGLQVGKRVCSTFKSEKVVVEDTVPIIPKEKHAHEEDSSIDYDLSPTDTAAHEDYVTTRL

Genome polyprotein = Genome polyprotein (dengue virus type 2, UniProt P29990); experiment: Dengue-2 NS5 methyltransferase inhibitors, primary screen, biochemical, confirmation dose response (AID 588689); format: functional
Chain of Genome polyprotein (P29990 2492-3391 limits assumed): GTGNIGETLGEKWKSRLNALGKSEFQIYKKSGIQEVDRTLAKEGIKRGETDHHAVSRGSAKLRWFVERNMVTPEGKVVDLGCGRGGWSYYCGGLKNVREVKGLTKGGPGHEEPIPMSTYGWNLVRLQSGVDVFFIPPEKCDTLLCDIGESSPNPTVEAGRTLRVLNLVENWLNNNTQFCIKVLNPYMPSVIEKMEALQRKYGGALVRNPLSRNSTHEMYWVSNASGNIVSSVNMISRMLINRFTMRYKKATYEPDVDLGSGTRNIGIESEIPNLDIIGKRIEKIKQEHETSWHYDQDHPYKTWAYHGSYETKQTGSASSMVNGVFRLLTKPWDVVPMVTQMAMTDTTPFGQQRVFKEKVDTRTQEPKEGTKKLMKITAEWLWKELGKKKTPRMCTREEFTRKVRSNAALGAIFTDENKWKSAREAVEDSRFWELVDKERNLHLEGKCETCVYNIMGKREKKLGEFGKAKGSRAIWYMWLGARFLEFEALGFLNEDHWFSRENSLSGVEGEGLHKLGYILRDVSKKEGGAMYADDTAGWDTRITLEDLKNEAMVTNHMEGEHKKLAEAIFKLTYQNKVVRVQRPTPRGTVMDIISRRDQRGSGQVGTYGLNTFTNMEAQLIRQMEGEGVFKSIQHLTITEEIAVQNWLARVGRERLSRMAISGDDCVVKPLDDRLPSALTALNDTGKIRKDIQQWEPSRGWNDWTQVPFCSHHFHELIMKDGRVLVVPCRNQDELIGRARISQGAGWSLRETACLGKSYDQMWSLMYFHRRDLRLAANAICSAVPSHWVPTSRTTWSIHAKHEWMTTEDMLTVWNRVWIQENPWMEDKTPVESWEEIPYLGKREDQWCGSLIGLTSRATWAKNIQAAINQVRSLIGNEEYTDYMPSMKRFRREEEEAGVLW

[2] = target: T5, Corticotropin-releasing factor receptor 2/Corticotropin-releasing factor-binding protein (Homo sapiens, UniProt P24387+Q13324); experiment: Dose Response confirmation of uHTS hits for small molecule antagonists of the CRF-binding protein and CRF-R2 receptor complex.; format: functional; details: read-out: IC50_Mean
T5 sequence (Q13324 whole entry): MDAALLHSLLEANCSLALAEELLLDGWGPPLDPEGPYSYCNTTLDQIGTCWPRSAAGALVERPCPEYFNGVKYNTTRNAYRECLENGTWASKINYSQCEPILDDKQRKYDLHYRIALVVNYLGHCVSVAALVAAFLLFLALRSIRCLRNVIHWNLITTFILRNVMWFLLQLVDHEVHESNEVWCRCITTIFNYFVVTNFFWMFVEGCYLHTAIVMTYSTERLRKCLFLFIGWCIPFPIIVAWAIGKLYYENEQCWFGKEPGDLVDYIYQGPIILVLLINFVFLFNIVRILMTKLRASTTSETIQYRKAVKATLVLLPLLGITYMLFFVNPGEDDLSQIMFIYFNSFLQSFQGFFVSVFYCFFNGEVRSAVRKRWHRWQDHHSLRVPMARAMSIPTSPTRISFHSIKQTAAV
T5 sequence (P24387 whole entry): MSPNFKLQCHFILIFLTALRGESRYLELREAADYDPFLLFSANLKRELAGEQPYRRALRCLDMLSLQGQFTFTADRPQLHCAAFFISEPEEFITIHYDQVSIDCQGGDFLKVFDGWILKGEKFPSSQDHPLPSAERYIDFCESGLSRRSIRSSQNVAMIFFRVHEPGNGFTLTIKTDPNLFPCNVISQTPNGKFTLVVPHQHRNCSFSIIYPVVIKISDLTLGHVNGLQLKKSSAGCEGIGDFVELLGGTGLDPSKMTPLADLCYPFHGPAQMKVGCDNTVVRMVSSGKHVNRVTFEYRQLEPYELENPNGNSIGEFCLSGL

[3] = target: T5, Corticotropin-releasing factor receptor 2/Corticotropin-releasing factor-binding protein; experiment: activators of CRF receptor 2 with binding protein – uHTS hits, confirmation (AID 602473); format: functional; details: read-out: EC50_Mean
[4] = CRF-BP/CRF-R2 complex antagonists, dose response, cell-based, uHTS hits, 384-well (AID 651639); format: functional, Homo sapiens; details: read-out: IC50_Mean
Estrogen receptor = target: T6, Estrogen receptor (Homo sapiens, UniProt P03372);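 further: potency for inhibiting coactivator peptide recruitment to the receptor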
T6 sequence (P03372 whole entry): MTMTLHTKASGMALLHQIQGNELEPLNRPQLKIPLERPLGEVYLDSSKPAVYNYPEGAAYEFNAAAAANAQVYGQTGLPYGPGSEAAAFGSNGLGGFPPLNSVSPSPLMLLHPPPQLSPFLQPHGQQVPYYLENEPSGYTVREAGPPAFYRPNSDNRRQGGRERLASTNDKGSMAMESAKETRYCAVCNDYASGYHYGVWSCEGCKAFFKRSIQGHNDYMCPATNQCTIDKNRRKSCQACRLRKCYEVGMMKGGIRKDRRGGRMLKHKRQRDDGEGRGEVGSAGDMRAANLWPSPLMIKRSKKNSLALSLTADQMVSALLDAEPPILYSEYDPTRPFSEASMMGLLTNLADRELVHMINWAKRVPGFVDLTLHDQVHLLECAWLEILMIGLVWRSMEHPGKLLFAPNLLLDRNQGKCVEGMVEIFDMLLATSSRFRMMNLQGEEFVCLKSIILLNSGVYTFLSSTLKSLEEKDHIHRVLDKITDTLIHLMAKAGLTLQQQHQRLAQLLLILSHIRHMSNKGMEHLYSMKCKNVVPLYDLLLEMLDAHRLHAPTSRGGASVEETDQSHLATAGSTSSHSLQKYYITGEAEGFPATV

Protein skinhead-1 = target: T7, Protein skinhead-1 (Caenorhabditis elegans, UniProt P34707); format: functional
T7 sequence (P34707 whole entry): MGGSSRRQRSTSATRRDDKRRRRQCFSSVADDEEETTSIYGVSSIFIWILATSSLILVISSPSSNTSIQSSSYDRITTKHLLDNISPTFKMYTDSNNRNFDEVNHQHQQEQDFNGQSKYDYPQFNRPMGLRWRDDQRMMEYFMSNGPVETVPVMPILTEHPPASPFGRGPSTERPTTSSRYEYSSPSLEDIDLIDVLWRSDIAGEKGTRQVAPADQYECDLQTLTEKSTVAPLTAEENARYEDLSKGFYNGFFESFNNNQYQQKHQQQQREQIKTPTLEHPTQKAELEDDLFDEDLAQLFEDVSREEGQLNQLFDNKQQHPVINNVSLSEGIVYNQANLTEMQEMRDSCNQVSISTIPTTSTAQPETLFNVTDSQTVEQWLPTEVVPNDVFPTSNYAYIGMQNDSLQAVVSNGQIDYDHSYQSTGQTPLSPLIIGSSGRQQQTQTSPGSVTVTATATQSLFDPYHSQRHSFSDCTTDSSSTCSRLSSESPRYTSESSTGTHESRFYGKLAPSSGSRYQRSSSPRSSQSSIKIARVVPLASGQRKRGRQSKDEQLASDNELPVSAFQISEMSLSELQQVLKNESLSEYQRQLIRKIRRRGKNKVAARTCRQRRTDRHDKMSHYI

Estrogen receptor beta = Estrogen receptor beta (Homo sapiens, UniProt Q92731);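 further: recombinant ER-beta bound to coactivator SRC1 peptide in presence of estradiol agonist; inhibitors block coactivator peptide binding and lower the FRET signal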
Chain of Estrogen receptor beta (Q92731 whole entry): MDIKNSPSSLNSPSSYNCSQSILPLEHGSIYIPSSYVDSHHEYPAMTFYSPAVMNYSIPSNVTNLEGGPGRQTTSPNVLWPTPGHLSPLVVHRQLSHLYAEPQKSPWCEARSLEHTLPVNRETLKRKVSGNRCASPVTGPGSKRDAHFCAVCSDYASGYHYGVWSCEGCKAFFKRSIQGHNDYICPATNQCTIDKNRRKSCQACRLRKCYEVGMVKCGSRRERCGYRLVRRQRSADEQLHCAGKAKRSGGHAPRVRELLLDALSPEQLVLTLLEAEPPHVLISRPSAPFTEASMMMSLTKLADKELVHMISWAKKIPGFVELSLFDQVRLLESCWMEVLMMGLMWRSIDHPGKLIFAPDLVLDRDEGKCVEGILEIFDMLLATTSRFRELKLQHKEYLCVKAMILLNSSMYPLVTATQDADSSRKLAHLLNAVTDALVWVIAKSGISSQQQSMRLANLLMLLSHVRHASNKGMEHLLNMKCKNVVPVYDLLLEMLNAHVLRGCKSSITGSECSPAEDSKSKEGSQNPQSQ

IC50 (Leucine aminopeptidase)	IC50 (Aspartyl aminopeptidase)	IC50 (Procathepsin L)	IC50 (Estrogen receptor)	Compound	further results
				CCOC(=O)c1c(NC(=O)CSc2ccccc2C(=O)O)sc(C)c1C	IC50 (Aminopeptidase N): 52.3 µM (active)
5.96 µM (active)	> 73.5 µM (not active)	> 59.6 µM (not active)		CCOC(=O)c1c(-c2cccc(C)c2)csc1NC(=O)C1CC=CCC1C(=O)O (centres undefined)	EC50 [1]: 7.5 µM (active); IC50 (Genome polyprotein): 61 µM (active)
< 1 µM (active)	> 73.5 µM (not active)	59.3 µM (not active)		COc1cc(NC(=O)CSc2nc3c(C)ccc(C)c3cc2C)c(C(=O)O)cc1OC	IC50 [2]: 10.1 µM (active); EC50 [3]: > 53 µM (inactive); IC50 [4]: > 20 µM (inactive)
			> 50 µM (not active)	Cc1cc(Cl)cc(C)c1OCCCCN1CCOCC1	IC50 (Protein skinhead-1): 38.9 µM (active)
7.15 µM (active)	> 73.5 µM (not active)	> 59.6 µM (not active)		Cc1cc(O)nc(SCC(=O)Nc2cccc(C(F)(F)F)c2)n1	
			26.5 µM (active)	Cc1ccc(C(=O)CSC2=C(C#N)C(c3ccco3)CC(=O)N2)c(C)c1 (centres undefined)	IC50 (Estrogen receptor beta): 16.1 µM (active)
